In the NIST ThermoML archive (doi:10.1016/j.fluid.2014.10.002):
Values joined by “and” are separate entries in the source; they are usually repeats but may differ in a detail not shown here. Equal entries are not always repeated.

Details: Liquid

CCCCC(CC)COC(=O)c1ccc(C(=O)OCC(CC)CCCC)c(C(=O)OCC(CC)CCCC)c1 (stereo unspecified) [tris(2-ethylhexyl) trimellitate]
Details | viscosity
303.15 K, 980 kPa, Vibrating wire viscometry | 158.5 mPa·s
303.15 K, 1030 kPa, Vibrating wire viscometry | 158.4 mPa·s
303.15 K, 1080 kPa, Vibrating wire viscometry | 158.9 mPa·s
303.15 K, 15060 kPa, Vibrating wire viscometry | 220.6 mPa·s and 220.2 mPa·s
303.15 K, 29810 kPa, Vibrating wire viscometry | 302.4 mPa·s and 302.1 mPa·s
303.15 K, 29820 kPa, Vibrating wire viscometry | 303.1 mPa·s
303.16 K, 2820 kPa, Vibrating wire viscometry | 165 mPa·s
303.16 K, 2850 kPa, Vibrating wire viscometry | 165.1 mPa·s and 165.7 mPa·s
303.16 K, 5120 kPa, Vibrating wire viscometry | 174.3 mPa·s
303.16 K, 5130 kPa, Vibrating wire viscometry | 173.4 mPa·s and 173.8 mPa·s and 173.6 mPa·s
303.16 K, 7680 kPa, Vibrating wire viscometry | 183.8 mPa·s [middle of 4 runs]
303.16 K, 7690 kPa, Vibrating wire viscometry | 183.8 mPa·s
303.16 K, 9830 kPa, Vibrating wire viscometry | 193.9 mPa·s
303.16 K, 9850 kPa, Vibrating wire viscometry | 193.9 mPa·s
303.16 K, 9880 kPa, Vibrating wire viscometry | 194.1 mPa·s
303.16 K, 19950 kPa, Vibrating wire viscometry | 242.6 mPa·s
303.16 K, 19980 kPa, Vibrating wire viscometry | 242.8 mPa·s
303.16 K, 19990 kPa, Vibrating wire viscometry | 242.8 mPa·s
303.16 K, 20010 kPa, Vibrating wire viscometry | 243.8 mPa·s
303.16 K, 29820 kPa, Vibrating wire viscometry | 303.5 mPa·s and 303.8 mPa·s
303.16 K, 29830 kPa, Vibrating wire viscometry | 302.3 mPa·s
303.16 K, 40160 kPa, Vibrating wire viscometry | 369.8 mPa·s
303.16 K, 40170 kPa, Vibrating wire viscometry | 370.5 mPa·s and 373.1 mPa·s and 370.9 mPa·s
303.16 K, 40180 kPa, Vibrating wire viscometry | 373.2 mPa·s and 369.5 mPa·s
303.17 K, 101.33 kPa, Capillary tube (Ostwald / Ubbelohde) method | 153.9 mPa·s
303.17 K, 50390 kPa, Vibrating wire viscometry | 462.2 mPa·s
303.17 K, 50400 kPa, Vibrating wire viscometry | 462.1 mPa·s [middle of 4 runs]
313.16 K, 1220 kPa, Vibrating wire viscometry | 87.78 mPa·s
313.16 K, 1230 kPa, Vibrating wire viscometry | 87.98 mPa·s
313.16 K, 1310 kPa, Vibrating wire viscometry | 88.02 mPa·s
313.16 K, 1320 kPa, Vibrating wire viscometry | 87.62 mPa·s and 87.55 mPa·s
313.16 K, 2780 kPa, Vibrating wire viscometry | 90.52 mPa·s
313.16 K, 5160 kPa, Vibrating wire viscometry | 96.14 mPa·s
313.16 K, 5170 kPa, Vibrating wire viscometry | 96.24 mPa·s
313.16 K, 5190 kPa, Vibrating wire viscometry | 96.26 mPa·s
313.16 K, 5210 kPa, Vibrating wire viscometry | 95.79 mPa·s
313.16 K, 7710 kPa, Vibrating wire viscometry | 101.6 mPa·s
313.16 K, 7780 kPa, Vibrating wire viscometry | 101.7 mPa·s and 101.9 mPa·s and 101.4 mPa·s
313.16 K, 7790 kPa, Vibrating wire viscometry | 101.3 mPa·s
313.16 K, 14800 kPa, Vibrating wire viscometry | 117.6 mPa·s
313.16 K, 14820 kPa, Vibrating wire viscometry | 117.4 mPa·s
313.16 K, 20040 kPa, Vibrating wire viscometry | 132.4 mPa·s
313.16 K, 20050 kPa, Vibrating wire viscometry | 131.6 mPa·s
313.16 K, 20060 kPa, Vibrating wire viscometry | 131.6 mPa·s
313.16 K, 29930 kPa, Vibrating wire viscometry | 159.8 mPa·s
313.16 K, 29970 kPa, Vibrating wire viscometry | 160.2 mPa·s
313.16 K, 29980 kPa, Vibrating wire viscometry | 159.8 mPa·s
313.16 K, 39960 kPa, Vibrating wire viscometry | 197.4 mPa·s
313.16 K, 39980 kPa, Vibrating wire viscometry | 197 mPa·s
313.16 K, 40000 kPa, Vibrating wire viscometry | 196.9 mPa·s
313.16 K, 40020 kPa, Vibrating wire viscometry | 196.6 mPa·s
313.16 K, 50020 kPa, Vibrating wire viscometry | 239.1 mPa·s
313.16 K, 50040 kPa, Vibrating wire viscometry | 240.3 mPa·s and 239.4 mPa·s
313.16 K, 50070 kPa, Vibrating wire viscometry | 239.5 mPa·s
313.16 K, 50080 kPa, Vibrating wire viscometry | 239.6 mPa·s
313.16 K, 50090 kPa, Vibrating wire viscometry | 239.3 mPa·s
313.16 K, 65420 kPa, Vibrating wire viscometry | 317.8 mPa·s
313.16 K, 65430 kPa, Vibrating wire viscometry | 319 mPa·s
313.16 K, 65440 kPa, Vibrating wire viscometry | 319.8 mPa·s
313.16 K, 65470 kPa, Vibrating wire viscometry | 317.5 mPa·s
313.17 K, 2780 kPa, Vibrating wire viscometry | 90.59 mPa·s and 90.6 mPa·s
313.17 K, 2790 kPa, Vibrating wire viscometry | 90.29 mPa·s and 90.54 mPa·s
313.17 K, 2800 kPa, Vibrating wire viscometry | 90.3 mPa·s
313.17 K, 5170 kPa, Vibrating wire viscometry | 95.9 mPa·s
313.17 K, 14770 kPa, Vibrating wire viscometry | 117 mPa·s
313.17 K, 20060 kPa, Vibrating wire viscometry | 132 mPa·s
313.17 K, 29940 kPa, Vibrating wire viscometry | 159.5 mPa·s
313.18 K, 101.33 kPa, Capillary tube (Ostwald / Ubbelohde) method | 86.37 mPa·s
323.1 K, 101.33 kPa, Capillary tube (Ostwald / Ubbelohde) method | 52.41 mPa·s
328.06 K, 101.33 kPa, Capillary tube (Ostwald / Ubbelohde) method | 41.71 mPa·s
328.15 K, 2490 kPa, Vibrating wire viscometry | 43.18 mPa·s
328.15 K, 2520 kPa, Vibrating wire viscometry | 43.29 mPa·s
328.15 K, 5120 kPa, Vibrating wire viscometry | 45.81 mPa·s
328.15 K, 7540 kPa, Vibrating wire viscometry | 47.59 mPa·s
328.15 K, 7550 kPa, Vibrating wire viscometry | 47.68 mPa·s
328.15 K, 7560 kPa, Vibrating wire viscometry | 47.66 mPa·s
328.15 K, 10410 kPa, Vibrating wire viscometry | 50.91 mPa·s
328.15 K, 10430 kPa, Vibrating wire viscometry | 50.81 mPa·s
328.15 K, 15140 kPa, Vibrating wire viscometry | 55.66 mPa·s
328.15 K, 20020 kPa, Vibrating wire viscometry | 60.75 mPa·s
328.15 K, 20040 kPa, Vibrating wire viscometry | 60.75 mPa·s and 60.87 mPa·s
328.15 K, 30400 kPa, Vibrating wire viscometry | 74.44 mPa·s
328.15 K, 30410 kPa, Vibrating wire viscometry | 74.65 mPa·s
328.15 K, 30420 kPa, Vibrating wire viscometry | 74.52 mPa·s
328.15 K, 40610 kPa, Vibrating wire viscometry | 89.47 mPa·s
328.15 K, 50030 kPa, Vibrating wire viscometry | 105.8 mPa·s and 105.5 mPa·s and 105.9 mPa·s
328.15 K, 50040 kPa, Vibrating wire viscometry | 105.5 mPa·s and 105.7 mPa·s
328.15 K, 50050 kPa, Vibrating wire viscometry | 105.7 mPa·s
328.15 K, 50070 kPa, Vibrating wire viscometry | 105.9 mPa·s
328.15 K, 50080 kPa, Vibrating wire viscometry | 105.8 mPa·s
328.15 K, 65530 kPa, Vibrating wire viscometry | 139.6 mPa·s
328.16 K, 1000 kPa, Vibrating wire viscometry | 41.66 mPa·s
328.16 K, 1030 kPa, Vibrating wire viscometry | 41.61 mPa·s and 41.82 mPa·s
328.16 K, 1050 kPa, Vibrating wire viscometry | 41.76 mPa·s
328.16 K, 2510 kPa, Vibrating wire viscometry | 43.2 mPa·s
328.16 K, 2520 kPa, Vibrating wire viscometry | 43.23 mPa·s
328.16 K, 2530 kPa, Vibrating wire viscometry | 43.31 mPa·s
328.16 K, 5100 kPa, Vibrating wire viscometry | 45.73 mPa·s and 45.69 mPa·s
328.16 K, 5130 kPa, Vibrating wire viscometry | 45.73 mPa·s and 45.72 mPa·s
328.16 K, 5140 kPa, Vibrating wire viscometry | 45.67 mPa·s
328.16 K, 7580 kPa, Vibrating wire viscometry | 47.76 mPa·s
328.16 K, 10390 kPa, Vibrating wire viscometry | 50.78 mPa·s
328.16 K, 10400 kPa, Vibrating wire viscometry | 50.84 mPa·s and 50.82 mPa·s
328.16 K, 10410 kPa, Vibrating wire viscometry | 50.74 mPa·s
328.16 K, 15100 kPa, Vibrating wire viscometry | 55.71 mPa·s
328.16 K, 15110 kPa, Vibrating wire viscometry | 55.52 mPa·s
328.16 K, 15130 kPa, Vibrating wire viscometry | 55.62 mPa·s
328.16 K, 20020 kPa, Vibrating wire viscometry | 60.83 mPa·s
328.16 K, 20030 kPa, Vibrating wire viscometry | 60.93 mPa·s
328.16 K, 30420 kPa, Vibrating wire viscometry | 74.4 mPa·s
328.16 K, 40570 kPa, Vibrating wire viscometry | 89.15 mPa·s
328.16 K, 40590 kPa, Vibrating wire viscometry | 89.1 mPa·s
328.16 K, 40620 kPa, Vibrating wire viscometry | 89.25 mPa·s
328.16 K, 50040 kPa, Vibrating wire viscometry | 105.5 mPa·s
328.16 K, 65490 kPa, Vibrating wire viscometry | 139.6 mPa·s
343.14 K, 1080 kPa, Vibrating wire viscometry | 22.75 mPa·s
343.14 K, 10140 kPa, Vibrating wire viscometry | 27.1 mPa·s
343.14 K, 10150 kPa, Vibrating wire viscometry | 27.11 mPa·s and 27.07 mPa·s
343.14 K, 19890 kPa, Vibrating wire viscometry | 32.41 mPa·s
343.14 K, 19900 kPa, Vibrating wire viscometry | 32.35 mPa·s and 32.43 mPa·s
343.14 K, 19910 kPa, Vibrating wire viscometry | 32.45 mPa·s
343.14 K, 19920 kPa, Vibrating wire viscometry | 32.38 mPa·s
343.14 K, 19930 kPa, Vibrating wire viscometry | 32.41 mPa·s
343.14 K, 30240 kPa, Vibrating wire viscometry | 38.59 mPa·s
343.14 K, 30250 kPa, Vibrating wire viscometry | 38.67 mPa·s and 38.63 mPa·s and 38.6 mPa·s
343.14 K, 30260 kPa, Vibrating wire viscometry | 38.59 mPa·s
343.14 K, 40260 kPa, Vibrating wire viscometry | 45.94 mPa·s
343.14 K, 40270 kPa, Vibrating wire viscometry | 45.89 mPa·s and 45.83 mPa·s
343.14 K, 40280 kPa, Vibrating wire viscometry | 45.91 mPa·s
343.14 K, 49840 kPa, Vibrating wire viscometry | 53.72 mPa·s and 53.82 mPa·s
343.14 K, 49860 kPa, Vibrating wire viscometry | 53.79 mPa·s
